Laboratory results reported in patent US20180256914A1, “COMPOSITIONS AND METHODS FOR THE TREATMENT OF MUCOSITIS ASSOCIATED WITH TREATMENT-INDUCED NEUTROPENIA” (KLOX TECHNOLOGIES INC., priority 2015, published 2018).

What was measured:
[1] = Neutralisation by Trolox of ROS produced by gel containing 12% urea peroxide; conditions: 2 mM Trolox; FIG. 2
P. aeruginosa = type: cell-based, Pseudomonas aeruginosa; conditions: Trolox at concentrations above 2 mM; data not shown

SMILES: Cc1c(C)c2c(c(C)c1O)CCC(C)(C(=O)O)O2 (centres unmarked) [Trolox]
- neutralization of ROS produced by the gel containing 12% urea peroxide [1]: neutralize the ROS
- cytotoxicity to P. aeruginosa (P. aeruginosa): not to be cytotoxic
